Measurements taken from publication PMC12876586, “Chronological lifespan extension and nucleotide salvage inhibition in yeast by isonicotinamide supplementation” (The Journal of Biological Chemistry, 2026).

How the values were obtained:
Assay type in all cases: biochemical
[1] = target: T1, Pho13 (Saccharomyces cerevisiae, UniProt P19881); test: pNPP hydrolysis, A400, whole cell extract of pho8Δ; details: pNPP substrate, Mg2+, Zn2+, pH 8.8, 37 °C, 15 min; weak inhibitor
T1 construct: native enzyme in whole cell extract of pho8Δ strain (Pho13 the remaining alkaline phosphatase)
T1 sequence (P19881 1-312): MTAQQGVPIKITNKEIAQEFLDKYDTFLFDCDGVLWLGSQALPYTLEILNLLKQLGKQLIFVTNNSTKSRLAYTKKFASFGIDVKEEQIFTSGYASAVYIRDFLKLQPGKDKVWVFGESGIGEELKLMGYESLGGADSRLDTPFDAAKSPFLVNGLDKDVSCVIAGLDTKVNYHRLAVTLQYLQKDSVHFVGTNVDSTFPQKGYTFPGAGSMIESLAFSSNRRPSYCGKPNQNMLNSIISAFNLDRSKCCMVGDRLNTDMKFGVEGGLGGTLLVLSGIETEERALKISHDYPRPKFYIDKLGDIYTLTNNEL

[2] = target: T2, Pho8 (Saccharomyces cerevisiae, UniProt P11491); test: pNPP hydrolysis, A400, whole cell extract of pho13Δ; details: pNPP substrate, Mg2+, Zn2+, pH 8.8, 37 °C, 15 min; weak inhibitor
T2 construct: native enzyme in whole cell extract of pho13Δ strain (Pho8 the remaining alkaline phosphatase)
T2 sequence (P11491 1-534): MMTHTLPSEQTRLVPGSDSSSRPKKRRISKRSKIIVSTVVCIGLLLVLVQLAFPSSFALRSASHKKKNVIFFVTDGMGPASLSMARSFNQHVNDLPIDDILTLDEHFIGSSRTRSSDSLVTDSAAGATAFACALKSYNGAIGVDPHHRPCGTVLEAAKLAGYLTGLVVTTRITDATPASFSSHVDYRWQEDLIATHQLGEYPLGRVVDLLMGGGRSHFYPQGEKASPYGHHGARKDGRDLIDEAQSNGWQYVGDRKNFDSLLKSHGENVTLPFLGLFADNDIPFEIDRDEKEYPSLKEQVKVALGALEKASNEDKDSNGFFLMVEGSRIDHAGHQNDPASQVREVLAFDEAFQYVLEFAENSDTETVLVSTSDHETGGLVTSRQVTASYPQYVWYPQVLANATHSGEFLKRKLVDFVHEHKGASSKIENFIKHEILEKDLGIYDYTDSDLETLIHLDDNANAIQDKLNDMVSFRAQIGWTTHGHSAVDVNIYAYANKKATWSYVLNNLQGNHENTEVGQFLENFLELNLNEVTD

[3] = target: T3, Sdt1 (Saccharomyces cerevisiae, UniProt P53078); test: malachite green phosphate release; details: 100 μM CMP (also inhibited with NMN), 5 mM MgCl2, pH 7.5, 37 °C, 30 min; mM INAM
T3 construct: recombinant, C-terminal His tag, commercial (Echelon Biosciences)

[4] = target: T4, Phm8 (Saccharomyces cerevisiae, UniProt P40025); test: malachite green phosphate release; details: 100 μM CMP, 5 mM MgCl2, pH 7.5, 37 °C, 30 min; mM INAM
T4 construct: pET-16b (NdeI), E. coli BL21(DE3), C-terminal 10xHis as printed, Ni-NTA purified
T4 sequence (P40025 1-321): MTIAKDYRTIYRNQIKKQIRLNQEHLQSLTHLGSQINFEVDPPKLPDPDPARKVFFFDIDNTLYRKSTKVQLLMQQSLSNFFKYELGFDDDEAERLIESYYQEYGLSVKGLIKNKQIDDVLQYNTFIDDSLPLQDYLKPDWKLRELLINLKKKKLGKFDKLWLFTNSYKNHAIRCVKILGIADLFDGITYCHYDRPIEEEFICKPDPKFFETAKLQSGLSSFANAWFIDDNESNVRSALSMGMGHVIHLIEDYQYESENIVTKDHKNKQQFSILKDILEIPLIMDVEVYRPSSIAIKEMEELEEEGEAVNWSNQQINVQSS

[5] = target: T3, Sdt1; test: malachite green phosphate release; details: 100 μM substrate, 5 mM MgCl2, pH 7.5, 37 °C, 30 min
[6] = target: T3, Sdt1; test: malachite green phosphate release; details: activator; 100 μM NMN, 5 mM MgCl2, pH 7.5, 37 °C, 30 min; mM NAM
[7] = target: T1, Pho13; test: pNPP hydrolysis, A400, whole cell extract of pho8Δ; details: Mg2+, Zn2+, pH 8.8, 37 °C, 15 min
[8] = target: T2, Pho8; test: pNPP hydrolysis, A400, whole cell extract of pho13Δ; details: Mg2+, Zn2+, pH 8.8, 37 °C, 15 min

T3 sequence (P53078 whole entry): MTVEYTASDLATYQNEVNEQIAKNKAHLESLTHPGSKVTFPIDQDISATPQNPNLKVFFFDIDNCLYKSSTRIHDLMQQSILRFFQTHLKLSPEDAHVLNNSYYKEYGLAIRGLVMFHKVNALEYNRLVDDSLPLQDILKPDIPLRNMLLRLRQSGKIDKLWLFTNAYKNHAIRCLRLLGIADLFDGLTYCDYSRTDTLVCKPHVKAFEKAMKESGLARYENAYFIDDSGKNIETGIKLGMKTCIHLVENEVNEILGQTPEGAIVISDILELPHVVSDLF

**Q.** Which results are given for `NC(=O)c1ccncc1` [isonicotinamide]?
**A.** inhibition of alkaline phosphatase activity [1]: suggesting that Pho8 and Pho13 are both weak inhibitory targets; inhibition of alkaline phosphatase activity [2]: suggesting that Pho8 and Pho13 are both weak inhibitory targets; inhibition of nucleotidase activity [3]: Sdt1 and Phm8 activity on CMP and NMN was significantly inhibited by INAM; inhibition of nucleotidase activity [4]: INAM inhibition of recombinant Sdt1 and Phm8 nucleotidase activity on CMP in vitro

**Q.** `NC(=O)c1ccc[n+]([C@@H]2O[C@H](COP(=O)(O)O)[C@@H](O)[C@H]2O)c1` [nicotinamide mononucleotide] was tested. Which “malachite green phosphate release” value [5] did it give?
**A.** INAM inhibition of recombinant Sdt1 nucleotidase activity on NMN in vitro

**Q.** With `NC(=O)c1cccnc1` [nicotinamide] as the compound, how does the “stimulation of nucleotidase activity” value [6] read?
**A.** NAM caused significant dose-dependent stimulation of Sdt1 nucleotidase activity with NMN as substrate

**Q.** What does the source list for `O=[N+]([O-])c1ccc(OP(=O)(O)O)cc1` [p-nitrophenyl phosphate]?
**A.** pNPP hydrolysis, A400, whole cell extract of pho8Δ [7]: both utilize pNPP as a substrate in vitro; pNPP hydrolysis, A400, whole cell extract of pho13Δ [8]: both utilize pNPP as a substrate in vitro
